Patent EP4725957A1, “GROUP OF CYCLIC ALKALINE LIPOPEPTIDE COMPOUNDS, AND PREPARATION METHOD THEREFOR AND USE THEREOF” (Institute of Medicinal Biotechnology, Chinese Academy of …, priority 2023, dated 2024)
Converted amounts (≈) assume the structure as drawn. Bridge positions count the residues as written; N and C are the ends. Square brackets hold non-standard residues; d marks the D form. Peptide text beside a SMILES is read from it. * marks the point of attachment. Dab(CH2SO3H) = N[C@@H](CCNCS(=O)(=O)O)C(=O)O; Heptanoyl(6-Me) = CC(C)CCCCC(=O)*; Nonanoyl = CCCCCCCCC(=O)*; X1 = CC[C@H](C)CCCCC(=O)*; dDab = NCC[C@@H](N)C(=O)O; Heptanoyl = CCCCCCC(=O)*; Octanoyl = CCCCCCCC(=O)*; Orn = NCCC[C@H](N)C(=O)O; dDap = NC[C@@H](N)C(=O)O; Dab = NCC[C@H](N)C(=O)O; Dap = NC[C@H](N)C(=O)O

Key:
Format in all cases: cell-based
[1] = system: Acinetobacter baumannii NCTC 13304 (OXA-27); conditions: NCTC 13304
Outline: (§1)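 In this CLSI-based assay, serially halved compound (final 64–0.03 mg/L) was exposed to (2-4) × 10^5 CFU/mL bacteria in MH broth at 35-37°C for 16-20 h. The readout was the MIC.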

[2] = system: Pseudomonas aeruginosa ATCC 27853; conditions: ATCC 27853
Outline: as §1

[3] = system: Escherichia coli ATCC BAA-2523; conditions: ATCC BAA-2523
Outline: as §1

[4] = system: Klebsiella pneumoniae KPN+19-15; conditions: KPN+19-15
Outline: as §1

[5] = system: Acinetobacter baumannii ABA19-1; conditions: ABA19-1
Outline: as §1

[6] = system: Klebsiella pneumoniae ATCC BAA-1705 (KPC); conditions: ATCC BAA-1705
Outline: as §1

[7] = system: Escherichia coli ATCC BAA-2340 (KPC); conditions: ATCC BAA-2340
Outline: as §1

[8] = system: Pseudomonas aeruginosa PAE19-3; conditions: PAE19-3
Outline: as §1

[9] = Nephrotoxicity assay: in vitro cytotoxicity of HK-2 cells by CCK-8 assay; conditions: human, HK-2 cells (human renal), 72 h incubation with drug-containing medium
Outline: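 Compounds in sterile water, diluted to final 500, 250, 200, 100, 50, 25 and 12.5 µg/mL, were applied for 72 h to human HK-2 kidney cells. Absorbance at 450 nm after 3 h CCK-8 gave viability against untreated wells, and IC50 came from logarithmic regression; three replicates.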

Compound	MIC [1] [µg/mL]	MIC [2] [µg/mL]	MIC [3] [µg/mL]	MIC [4] [µg/mL]	MIC [5] [µg/mL]	MIC [6] [µg/mL]	MIC [7] [µg/mL]	MIC [8] [µg/mL]	IC50 at 72 h [9] [µg/mL]
CCCCCCCC(=O)N[C@@H](CCN)C(=O)N[C@H](C(=O)N[C@H](CO)C(=O)N[C@H]1CCNC(=O)[C@H]([C@@H](C)O)NC(=O)[C@H](CCN)NC(=O)[C@H](CN)NC(=O)[C@H]([C@@H](C)O)NC(=O)[C@@H](Cc2ccccc2)NC(=O)[C@H](CCN)NC1=O)[C@@H](C)O [Compound 73, Octanoyl-Dab-Thr-D-Ser-ring(4-10)[Dab-Dab-D-Phe-Thr-Dap-Dab-Thr]] (Octanoyl-[Dab]T[dS][Dab][Dab][dF]T[Dap][Dab]T; lactam 4-C)	≤0.03	>64	≤0.03	0.5 (≈ 0.435 µM)	0.06 (≈ 0.0522 µM)	0.25 (≈ 0.217 µM)	≤0.03	64 (≈ 55.6 µM)	> 500
CC[C@H](C)CCCCC(=O)N[C@@H](CCN)C(=O)N[C@H](C(=O)N[C@H](CO)C(=O)N[C@H]1CCNC(=O)[C@H]([C@@H](C)O)NC(=O)[C@H](CCCN)NC(=O)[C@H](CCN)NC(=O)[C@H]([C@@H](C)O)NC(=O)[C@@H](Cc2ccccc2)NC(=O)[C@H](CCN)NC1=O)[C@@H](C)O [Compound 86, (S)-6-methyloctanoyl-Dab-Thr-D-Ser-ring(4-10)[Dab-Dab-D-Phe-Thr-Dab-Orn-Thr]] (X1-[Dab]T[dS][Dab][Dab][dF]T[Dab][Orn]T; lactam 4-C)	≤0.03	>64	0.03 (≈ 0.0252 µM)	0.5 (≈ 0.419 µM)	0.06 (≈ 0.0503 µM)	0.25 (≈ 0.21 µM)	0.03 (≈ 0.0252 µM)	64 (≈ 53.7 µM)	> 500
CC(C)CCCCC(=O)N[C@@H](CCN)C(=O)N[C@H](C(=O)N[C@H](CO)C(=O)N[C@H]1CCNC(=O)[C@H]([C@@H](C)O)NC(=O)[C@H](CCN)NC(=O)[C@H](CCN)NC(=O)[C@H]([C@@H](C)O)NC(=O)[C@@H](Cc2ccccc2)NC(=O)[C@H](CCNCS(=O)(=O)O)NC1=O)[C@@H](C)O [Compound 109, 6-methylheptanoyl-Dab-Thr-D-Ser-ring(4-10)[Dab-Dab(CH2SO3H)-D-Phe-Thr-Dab-Dab-Thr]] ({Heptanoyl(6-Me)}-[Dab]T[dS][Dab][Dab(CH2SO3H)][dF]T[Dab][Dab]T; lactam 4-C)	0.06 (≈ 0.0477 µM)	0.25 (≈ 0.199 µM)	0.06 (≈ 0.0477 µM)	0.125 (≈ 0.0993 µM)	0.25 (≈ 0.199 µM)	0.125 (≈ 0.0993 µM)	0.06 (≈ 0.0477 µM)	0.5 (≈ 0.397 µM)	> 500
CCCCCCC(=O)N[C@@H](CCN)C(=O)N[C@H](C(=O)N[C@@H](CCCN)C(=O)N[C@H]1CCNC(=O)[C@H]([C@@H](C)O)NC(=O)[C@H](CCN)NC(=O)[C@H](CCN)NC(=O)[C@H](CC(C)C)NC(=O)[C@@H](Cc2ccccc2)NC(=O)[C@H](CCN)NC1=O)[C@@H](C)O [Compound 49, Heptanoyl-Dab-Thr-Orn-ring(4-10)[Dab-Dab-D-Phe-Leu-Dab-Dab-Thr]] (Heptanoyl-[Dab]T[Orn][Dab][Dab][dF]L[Dab][Dab]T; lactam 4-C)	0.06 (≈ 0.0504 µM)	0.03 (≈ 0.0252 µM)	0.03 (≈ 0.0252 µM)	0.03 (≈ 0.0252 µM)	0.125 (≈ 0.105 µM)	0.03 (≈ 0.0252 µM)	0.03 (≈ 0.0252 µM)	0.5 (≈ 0.42 µM)	367 ± 8.7 (≈ 309 µM)
CCCCCCCCC(=O)N[C@@H](CCN)C(=O)N[C@H](C(=O)N[C@H](CCN)C(=O)N[C@H]1CCNC(=O)[C@H]([C@@H](C)O)NC(=O)[C@H](CCN)NC(=O)[C@H](CCN)NC(=O)[C@H]([C@@H](C)O)NC(=O)[C@@H](Cc2ccccc2)NC(=O)[C@H](CCN)NC1=O)[C@@H](C)O [Compound 15, Nonanoyl-Dab-Thr-D-Dab-ring(4-10)[Dab-Dab-D-Phe-Thr-Dab-Dab-Thr]] (Nonanoyl-[Dab]T[dDab][Dab][Dab][dF]T[Dab][Dab]T; lactam 4-C)	0.06 (≈ 0.0504 µM)	2 (≈ 1.68 µM)	0.06 (≈ 0.0504 µM)	0.06 (≈ 0.0504 µM)	0.06 (≈ 0.0504 µM)	0.06 (≈ 0.0504 µM)	0.06 (≈ 0.0504 µM)	2 (≈ 1.68 µM)	320 ± 31.5 (≈ 269 µM)
CC[C@H](C)CCCCC(=O)N[C@@H](CCN)C(=O)N[C@H](C(=O)N[C@@H](CCN)C(=O)N[C@H]1CCNC(=O)[C@H]([C@@H](C)O)NC(=O)[C@H](CCN)NC(=O)[C@H](CCN)NC(=O)[C@H]([C@@H](C)O)NC(=O)[C@@H](Cc2ccccc2)NC(=O)[C@H](CCN)NC1=O)[C@@H](C)O [Compound 16, (S)-6-methyloctanoyl-Dab-Thr-Dab-ring(4-10)[Dab-Dab-D-Phe-Thr-Dab-Dab-Thr]] (X1-[Dab]T[Dab][Dab][Dab][dF]T[Dab][Dab]T; lactam 4-C)	≤0.03	0.5 (≈ 0.42 µM)	≤0.03	≤0.03	≤0.03	≤0.03	≤0.03	0.5 (≈ 0.42 µM)	> 500
CCCCCCCC(=O)N[C@@H](CCCN)C(=O)N[C@H](C(=O)N[C@H](CO)C(=O)N[C@H]1CCNC(=O)[C@H]([C@@H](C)O)NC(=O)[C@H](CCN)NC(=O)[C@H](CCN)NC(=O)[C@H]([C@@H](C)O)NC(=O)[C@@H](Cc2ccccc2)NC(=O)[C@H](CCN)NC1=O)[C@@H](C)O [Compound 58, Octanoyl-Orn-Thr-D-Ser-ring(4-10)[Dab-Dab-D-Phe-Thr-Dab-Dab-Thr]] (Octanoyl-[Orn]T[dS][Dab][Dab][dF]T[Dab][Dab]T; lactam 4-C)	0.25 (≈ 0.212 µM)	64 (≈ 54.3 µM)	0.125 (≈ 0.106 µM)	0.5 (≈ 0.424 µM)	0.25 (≈ 0.212 µM)	0.25 (≈ 0.212 µM)	0.125 (≈ 0.106 µM)	4 (≈ 3.39 µM)	> 500
CC[C@H](C)CCCCC(=O)N[C@@H](CN)C(=O)N[C@H](C(=O)N[C@H](CCN)C(=O)N[C@H]1CCNC(=O)[C@H]([C@@H](C)O)NC(=O)[C@H](CCN)NC(=O)[C@H](CCN)NC(=O)[C@H](CC(C)C)NC(=O)[C@@H](CC(C)C)NC(=O)[C@H](CCN)NC1=O)[C@@H](C)O [Compound 96, (S)-6-methyloctanoyl-Dap-Thr-D-Dab-ring(4-10)[Dab-Dab-D-Leu-Leu-Dab-Dab-Thr]] (X1-[Dap]T[dDab][Dab][Dab][dL]L[Dab][Dab]T; lactam 4-C)	0.03 (≈ 0.026 µM)	0.5 (≈ 0.433 µM)	0.03 (≈ 0.026 µM)	0.03 (≈ 0.026 µM)	0.03 (≈ 0.026 µM)	0.03 (≈ 0.026 µM)	0.03 (≈ 0.026 µM)	0.5 (≈ 0.433 µM)	207 ± 13.2 (≈ 179 µM)
CCCCCCC(=O)N[C@@H](CCN)C(=O)N[C@H](C(=O)N[C@@H](CCCN)C(=O)N[C@H]1CCNC(=O)[C@H]([C@@H](C)O)NC(=O)[C@H](CCN)NC(=O)[C@H](CCN)NC(=O)[C@H]([C@@H](C)O)NC(=O)[C@@H](Cc2ccccc2)NC(=O)[C@H](CCN)NC1=O)[C@@H](C)O [Compound 29, Heptanoyl-Dab-Thr-Orn-ring(4-10)[Dab-Dab-D-Phe-Thr-Dab-Dab-Thr]] (Heptanoyl-[Dab]T[Orn][Dab][Dab][dF]T[Dab][Dab]T; lactam 4-C)	0.06 (≈ 0.051 µM)	0.03 (≈ 0.0255 µM)	0.03 (≈ 0.0255 µM)	0.03 (≈ 0.0255 µM)	0.125 (≈ 0.106 µM)	0.03 (≈ 0.0255 µM)	0.03 (≈ 0.0255 µM)	0.5 (≈ 0.425 µM)	> 500
CCCCCCCC(=O)N[C@@H](CCN)C(=O)N[C@H](C(=O)N[C@H](CN)C(=O)N[C@H]1CCNC(=O)[C@H]([C@@H](C)O)NC(=O)[C@H](CCN)NC(=O)[C@H](CCN)NC(=O)[C@H]([C@@H](C)O)NC(=O)[C@@H](Cc2ccccc2)NC(=O)[C@H](CCN)NC1=O)[C@@H](C)O [Compound 3, Octanoyl-Dab-Thr-D-Dap-ring(4-10)[Dab-Dab-D-Phe-Thr-Dab-Dab-Thr]] (Octanoyl-[Dab]T[dDap][Dab][Dab][dF]T[Dab][Dab]T; lactam 4-C)	≤0.03	0.03 (≈ 0.0258 µM)	≤0.03	≤0.03	≤0.03	≤0.03	≤0.03	0.25 (≈ 0.215 µM)	> 500
CCCCCCCC(=O)N[C@@H](CN)C(=O)N[C@H](C(=O)N[C@H](CO)C(=O)N[C@H]1CCNC(=O)[C@H]([C@@H](C)O)NC(=O)[C@H](CCN)NC(=O)[C@H](CCN)NC(=O)[C@H]([C@@H](C)O)NC(=O)[C@@H](Cc2ccccc2)NC(=O)[C@H](CCN)NC1=O)[C@@H](C)O [Compound 53, Octanoyl-Dap-Thr-D-Ser-ring(4-10)[Dab-Dab-D-Phe-Thr-Dab-Dab-Thr]] (Octanoyl-[Dap]T[dS][Dab][Dab][dF]T[Dab][Dab]T; lactam 4-C)	0.25 (≈ 0.217 µM)	64 (≈ 55.6 µM)	≤0.03	0.5 (≈ 0.435 µM)	0.25 (≈ 0.217 µM)	0.25 (≈ 0.217 µM)	≤0.03	4 (≈ 3.48 µM)	> 500
